# Reference: patent publication US8222487B2, “Application of ERF genes from Bupleurum kaoi” (National Tsing Hua University, priority 2009, dated 2012)
# Key:
# [1] = system: B. kaoi adventitious roots; assay: Measurement of malondialdehyde (MDA) in adventitious roots; assay type: cell-based, Bupleurum kaoi
# Experimental: To test whether MeJA caused oxidative stress, the H2O2 level was measured as described below. H2O2 was extracted by homogenizing 0.3 to 0.5 g of adventitious roots with 3 ml phosphate buffer (50 mM, pH6.8) and centrifuged at 6000×g for 25 min. A 2 ml extract was mixed with 1 ml 0.1% titanium sulfate in 20% H2SO4 (v/v), and centrifuged at 6000×g for 15 min. The optical density of the supernatant was measured at 410 nm using an equal volume of phosphate buffer as a blank. […] The MDA level was colorimetrically measured as described below. MDA was extracted by homogenizing 0.3 to 0.5 g adventitious roots with 2 ml 5% trichloroacetic acid, and centrifuged at 10,000×g for 5 min at 20° C. A mixture of 1 ml supernatant with 4 ml 0.5% thiobarbituric acid in 20% trichloroacetic acid was heated in a 95° C. water bath for 30 min and centrifuged for 10 min at 2000×g to remove haziness. Optical density of the supernatant was measured at 532 nm and 600 nm using 1 ml 5% trichloroacetic acid to replace supernatant as a blank.
# [2] = system: B. kaoi adventitious roots; assay: qRT-PCR of MeJA-induced gene transcripts in adventitious roots; assay type: cell-based, Bupleurum kaoi; conditions: 500 μM MeJA
# Experimental: Adventitious root cultures were induced from the roots of germ-free seedlings of B. kaoi and were subcultured every 6 weeks by adding 0.2 g roots to a 125 ml flask containing 50 ml of B5 liquid medium supplemented with 2 mg 1^−1 NAA. Cultures were shaken using a rotary shaker at 100 rpm at 25° C. in the dark. To quantify the effect of MeJA on saikosaponin level, adventitious roots were treated with 500 and 1000 μM MeJA 2 weeks after subculture. Total saikosaponin was measured 2 weeks after MeJA treatment. To monitor expression of MeJA-responsive genes, the nutrient medium was refreshed 4 weeks after subculture and MeJA (500 μM) was applied 2 weeks after refreshment. Roots were harvested at 13 time points (5 min; 1, 2, 8, 24 hours; 2, 4, 6, 8 days; 2, 3, 4, 5 weeks) after the addition of the MeJA.
# Total cellular RNA was extracted as described by Chang et al. (Chang et al., Plant Mol. Biol. (1993) 693-699) with some modifications. Three to five grams of tissue was frozen in liquid nitrogen and ground to a fine powder with mortar and pestle. The powder was added to 15 ml of prewarmed (65° C.) extraction buffer (2%, v/v hexadecyltrimethylammonium bromide (CTAB), 2%, v/v polyvinylpyrrolidinone K 30 (PVP), 100 mM Tris-HCl, pH 8.0, 25 mM EDTA, 2 M NaCl, 0.5 mg ml^−1 spermidine, 2% β-mercaptoethanol), and mixed completely by vigorous shaking. The mixture was extracted twice with an equal volume of chloroform:isoamyl alcohol (24:1). The RNA was precipitated by adding ¼ volume of cold 10 M LiCl to the aqueous phase and held for 12 to 18 h at −20° C. After centrifugation at 19,800×g at 4° C., the RNA was dissolved in 500 μl sterile DEPC H2O. The resuspended RNA was reextracted with chloroform:isoamyl alcohol (24:1). Three volumes of 100% ethanol and 1/10 volume of 3 M sodium acetate (pH 5.2) were added to the aqueous phase, and the solution was precipitated with liquid nitrogen for 15 min The RNA was spun down at 19,800×g for 30 min at 4° C. and washed with 80% ethanol. The dried pellet was resuspended in sterile DEPC H2O.
# Each RNA sample of 10 μg in 9 μl sterile DEPC H2O and 1 μl oligo-d(T)18 primer (100 μM) was denatured at 90° C. for 5 min and chilled on ice for 10 min Then 4μ5× reaction buffer (250 mM Tris-HCl, pH 8.0, 375 mM KCl, 15 mM MgCl2), 2 μl 10 mM dNTP, 2 μl 100 mM dithiothreitol (DTT), and 0.5 μl RNasin ribonuclease inhibitor (40 U μl^−1, Promega) were added and incubated at 37° C. for 10 min. After the addition of 1.5 μl Moloney murine leukemia virus (MMLV) reverse transcriptase (200 U μl^−1, Gibco BRL), the reaction was carried out at 37° C. for 90 min, 95° C. for 5 min, then chilled on ice. qRT-PCR reactions were performed with a SYBR Green PCR Master Mix (Applied Biosystems) in a 7500 Real-Time PCR System (Applied Biosystems) using primers designed with Primer Express 2.0 Software (Applied Biosystems). Each reaction was performed in triplicate, and contained 4 μl of a 1:1000 dilution of synthesized cDNA, primers to a final concentration of 100 nM each, 5 μl of the SYBR Green PCR Master mix and sterile deionized H2O to a total volume of 10 μl. PCR reactions were carried out at 50° C. for 2 min, 95° C. for 10 min, 40 cycles of 95° C. for 15 s and 60° C. for 1 min. The specificity of the amplified products was evaluated by analysis of the dissociation curves generated by the equipment. Non-template controls were prepared to confirm absence of contamination. The ratio between the relative amounts of the target gene and the endogenous control gene, in the qRT-PCR reactions, was determined based on the 2^−ΔΔCt method. The target gene expression level was plotted as log10 RQ (RQ=2^−ΔΔCt).
smiles,measurement,setting,value
"CC/C=C\CC1C(=O)CCC1CC(=O)OC (stereo not drawn) [MeJA, Methyl jasmonate]",Increase in the MDA level,"[1]; 500 μM MeJA, at 2 days",1.4 fold
same,Accumulation of MDA,[1]; all treatments during 5 weeks,< 47 nmol/g
same,Peroxidase AM409285 transcripts increase,[2]; 2 weeks,37 fold
same,BkGST1 (AM409308) transcripts increase,[2]; 5 min,3 fold
same,BkGST2 (AM409289) transcripts activation,[2]; 5 min,6 fold
same,B. kaoi PAL (AM409299) transcripts increase,[2]; 1 h,3 fold
same,BkERF1.2 (AM409280) transcripts increase,[2]; 1 h,133 fold
same,Peroxidase AM409296 transcripts increase,[2]; 1 h,7 fold
same,Phospholipase D alpha 1 (AM409303) transcripts induction,[2]; 1 h,6 fold
same,Trypsin protease inhibitor AM409305 transcripts increase,[2]; 1 h,4 fold
same,ACO gene (AM409282) induction,[2]; 2 h,5 fold
same,BkAOC (AM409312) mRNA level induction,[2]; 2 h,9 fold
same,BkERF1.1 (AM409278) transcripts increase,[2]; 2 h,41 fold
same,IAA-amino acid hydrolase (AM409294) transcripts increase,[2]; 2 h,50 fold
same,PIN (AM409287) transcripts increase,[2]; 2 h,166 fold
same,Prephenate dehydratase (AM409309) transcripts induction,[2]; 2 h,7 fold
same,Trypsin protease inhibitor AM409295 transcripts increase,[2]; 2 h,5 fold
same,BkGST2 (AM409289) transcripts increase,[2]; 8 h,161 fold
same,Peroxidase AM409285 transcripts increase,[2]; 8 h,5 fold
same,Protease inhibitor (AM409279) transcripts increase,[2]; 8 h,4 fold
same,Pyruvate kinase gene (AM409311) induction,[2]; 8 h,3 fold
same,UDP-glucosyltransferase gene (AM409293) induction,[2]; 8 h,98 fold
same,Serine protease inhibitor (AM409301) mRNA level increase,[2]; 24 h,3 fold
same,Trypsin protease inhibitor AM409295 transcripts increase,[2]; 2 days,2051 fold
same,IAA-amido synthase gene (AM409281) induction,[2]; 4 days,5 fold
same,IAA-amino acid hydrolase (AM409294) transcripts increase,[2]; 4 days,139 fold
same,Pyruvate kinase gene (AM409311) induction,[2]; 4 days,9 fold
same,B. kaoi PAL (AM409299) transcripts increase,[2]; 6 days,23 fold
same,Basic endochitinase gene (AM409300) induction,[2]; 6 days,726 fold
same,BkSDR (AM409290) transcripts increase,[2]; 6 days,4 fold
same,Glycosyl hydrolase family 18 protein gene (AM409313) induction,[2]; 6 days,61 fold
same,LOX (AM409291) transcript induction,[2]; 6 days,4404 fold
same,PIN (AM409287) transcripts increase,[2]; 6 days,178 fold
same,Peroxidase AM409296 transcripts increase,[2]; 6 days,114 fold
same,Phospholipase D alpha 1 (AM409303) transcripts induction,[2]; 6 days,44 fold
same,Prephenate dehydratase (AM409309) transcripts induction,[2]; 6 days,27 fold
same,Trypsin protease inhibitor AM409305 transcripts increase,[2]; 6 days,2944 fold
same,Zinc finger C2H2 type gene (AM409288) transcripts induction,[2]; 6 days,118 fold
same,ACO gene (AM409282) induction,[2]; 8 days,19 fold
same,BkGST1 (AM409308) transcripts increase,[2]; 8 days,17 fold
same,IAA-amido synthase gene (AM409281) induction,[2]; 8 days,10 fold
same,MYB gene (AM409302) transcripts increase,[2]; 8 days,53 fold
same,OPR2 (AM409310) expression level induction,[2]; 8 days,19 fold
same,Protease inhibitor (AM409279) transcripts increase,[2]; 8 days,90 fold
same,Serine protease inhibitor (AM409301) mRNA level increase,[2]; 8 days,81 fold
same,Plant defensin (AM409284) transcripts increase,[2]; after 2 weeks,5 fold
same,Enoyl-CoA hydratase gene (AM409286) induction,[2]; primarily in 4-8 days,6 fold
same,"β-amyrin synthase gene (β-AS, AM421813) transcript level increase",[2]; time not stated,2 fold
